From patent US20230406831A1, “COMPOUNDS AND METHODS OF INHIBITING BACTERIAL CHAPERONIN SYSTEMS” (THE TRUSTEES OF INDIANA UNIVERSITY, priority 2020, published 2023)
Read-outs that look alike come from different tables or passages of the source.

Columns and labels:
[1] = HEK 293 kidney cell viability / cytotoxicity assay (Alamar Blue); type: cell-based; conditions: human, 48 h incubation, Alamar Blue, read-out: HEK 293 Kidney Cell Viability CC50
[2] = biological target: T1, GroEL/ES (Escherichia coli, UniProt P0A6F5); experiment: GroEL/ES-mediated dMDH refolding assay; type: biochemical, E. coli
T1 construct: made in house; host or cells: GroEL in E. coli DH5a; GroES in E. coli BL21 (DE3)
Summary of the method: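 Pre-formed chaperonin–denatured pig heart MDH complexes (50 nM GroEL or HSP60, 60 nM GroES or HSP10, 12 nM dMDH) refolded with 1 mM ATP and compound (100 μM–46 nM) at 37 °C, ~20-40 min for GroEL/ES or ~40-60 min for HSP60/10. After EDTA quench, MDH activity was read as NADH loss at A340. IC50 came from variable-slope regression.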

T1 sequence (P0A6F5 2-548): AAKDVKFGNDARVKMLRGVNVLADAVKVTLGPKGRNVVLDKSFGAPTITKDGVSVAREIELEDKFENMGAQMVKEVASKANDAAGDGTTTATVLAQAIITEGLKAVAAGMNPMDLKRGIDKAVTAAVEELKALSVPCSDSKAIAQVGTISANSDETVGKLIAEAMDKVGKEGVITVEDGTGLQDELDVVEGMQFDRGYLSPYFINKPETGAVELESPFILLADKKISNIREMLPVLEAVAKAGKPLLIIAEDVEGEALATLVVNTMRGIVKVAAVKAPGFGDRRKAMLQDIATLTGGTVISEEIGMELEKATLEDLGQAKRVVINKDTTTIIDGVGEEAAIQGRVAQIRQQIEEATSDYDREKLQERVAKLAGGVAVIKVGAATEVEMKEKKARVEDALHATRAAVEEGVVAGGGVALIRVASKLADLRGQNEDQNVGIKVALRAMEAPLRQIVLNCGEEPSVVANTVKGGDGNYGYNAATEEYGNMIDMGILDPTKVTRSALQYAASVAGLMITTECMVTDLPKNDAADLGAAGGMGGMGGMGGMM

SMILES | IC50 [2] [µM] | CC50 at 48 h ([1]; HEK 293 kidney cells, Table 3) [µM] | further results
Cc1cc(C(C#N)c2ccc(Cl)cc2)c(Cl)cc1NC(=O)c1ccc(F)cc1 (stereo not shown) [Compound 81, N-(5-chloro-4-((4-chlorophenyl)(cyano)methyl)-2-methylphenyl)-4-fluorobenzamide] | 77 | – | CC50 at 48 h ([1]; Table 2): 78 µM
O=C(Nc1ncc([N+](=O)[O-])s1)c1ccccc1O [Tizoxanide, reference compound] | > 100 | – | CC50 at 48 h ([1]; HEK 293 kidney cells, Table 1): 31 µM
Cc1cc(C(C#N)c2ccc(Cl)cc2)c(Cl)cc1NC(=O)c1ccc(O)cc1 (stereo not shown) [Compound 66, N-(5-chloro-4-((4-chlorophenyl)(cyano)methyl)-2-methylphenyl)-4-hydroxybenzamide] | 47 | – | CC50 at 48 h ([1]; HEK 293 kidney cells, Table 2): 65 µM
Cc1cc(C(C#N)c2ccc(Cl)cc2)c(Cl)cc1NC(=O)c1ccc(Br)cc1 (stereo not shown) [Compound 75, 4-bromo-N-(5-chloro-4-((4-chlorophenyl)(cyano)methyl)-2-methylphenyl)benzamide] | 58 | – | CC50 at 48 h ([1]; HEK 293 kidney cells, Table 2): 33 µM
COc1ccc(Cl)cc1C(=O)Nc1ccc(Sc2nc3ccccc3s2)cc1 [Compound 96, N-(4-(benzo[d]thiazol-2-ylthio)phenyl)-5-chloro-2-methoxybenzamide] | 59 | 56 | –
COc1ccc(Cl)cc1C(=O)Nc1cc(Cl)c(C(C#N)c2ccc(Cl)cc2)cc1C (stereo not shown) [Compound 57, 5-chloro-N-(5-chloro-4-((4-chlorophenyl)(cyano)methyl)-2-methylphenyl)-2-methoxybenzamide] | 59 | – | CC50 at 48 h ([1]; Table 2): 28 µM
O=C(Nc1ccc(OCc2ccccc2)cc1)c1cc(Cl)ccc1O [Compound 103, N-(4-(benzyloxy)phenyl)-5-chloro-2-hydroxybenzamide] | 44 | > 100 | –
CC(=O)Nc1cc(Cl)c(C(C#N)c2ccc(Cl)cc2)cc1C (stereo not shown) [Compound 83, N-(5-chloro-4-((4-chlorophenyl)(cyano)methyl)-2-methylphenyl)acetamide] | > 100 | – | CC50 at 48 h ([1]; HEK 293 kidney cells, Table 2): 83 µM
O=C(Nc1ccc(Sc2nc3ccccc3s2)c(Cl)c1)c1cc(Cl)ccc1O [Compound 95, N-(4-(benzo[d]thiazol-2-ylthio)-3-chlorophenyl)-5-chloro-2-hydroxybenzamide] | 21 | 83 | –
Cc1cc(C(C#N)c2ccc(Cl)cc2)c(Cl)cc1NC(=O)c1ccc(N)cc1 (stereo not shown) [Compound 72, 4-amino-N-(5-chloro-4-((4-chlorophenyl)(cyano)methyl)-2-methylphenyl)benzamide] | 47 | – | CC50 at 48 h ([1]; HEK 293 kidney cells, Table 2): 53 µM
O=C(Nc1ccc(Sc2nc3ccccc3s2)cc1)c1cc(Cl)ccc1O [Compound 97, N-(4-(benzo[d]thiazol-2-ylthio)phenyl)-5-chloro-2-hydroxybenzamide] | 24 | 28 | –
Cc1cc(C(C#N)c2ccc(Cl)cc2)c(Cl)cc1NC(=O)c1cccc(Br)c1O (stereo not shown) [Compound 48, 3-bromo-N-(5-chloro-4-((4-chlorophenyl)(cyano)methyl)-2-methylphenyl)-2-hydroxybenzamide] | 12 | – | CC50 at 48 h ([1]; Table 2): 43 µM
O=C(Nc1ccc(Oc2ccc(Cl)cc2)cc1)c1cc(Cl)ccc1O [Compound 89, 5-chloro-N-(4-(4-chlorophenoxy)phenyl)-2-hydroxybenzamide] | 46 | – | CC50 at 48 h ([1]; Table 3): 15 µM
CC(=O)Oc1ccccc1C(=O)Nc1ncc([N+](=O)[O-])s1 [Nitazoxanide, reference compound] | > 100 | – | CC50 at 48 h ([1]; HEK 293 kidney cells, Table 1): 30 µM
COc1ccc(Cl)cc1C(=O)Nc1ccc(C(=O)O)cc1 [Compound 108, 4-(5-chloro-2-methoxybenzamido)benzoic acid] | > 100 | > 100 | –
Cc1cc(C(C#N)c2ccc(Cl)cc2)c(Cl)cc1NC(=O)c1ccc(Cl)cc1O (stereo not shown) [Compound 56, 4-chloro-N-(5-chloro-4-((4-chlorophenyl)(cyano)methyl)-2-methylphenyl)-2-hydroxybenzamide] | 57 | – | CC50 at 48 h ([1]; Table 2): 16 µM
Cc1cc(C(C#N)c2ccc(Cl)cc2)c(Cl)cc1NC(=O)c1ccccc1Br (stereo not shown) [Compound 73, 2-bromo-N-(5-chloro-4-((4-chlorophenyl)(cyano)methyl)-2-methylphenyl)benzamide] | 53 | – | CC50 at 48 h ([1]; Table 2): > 100 µM
COc1ccc(Cl)cc1C(=O)Nc1ccc(Oc2ccc(Cl)cc2)cc1 [Compound 88, 5-chloro-N-(4-(4-chlorophenoxy)phenyl)-2-methoxybenzamide] | > 100 | > 100 | –

SMILES | IC50 [2] [µM] | CC50 at 48 h ([1]; HEK 293 kidney cells, Table 3) [µM] | further results
Cc1cc(C(C#N)c2ccc(Cl)cc2)c(Cl)cc1NC(=O)c1ccc(Cl)cc1 (stereo not shown) [Compound 78, 4-chloro-N-(5-chloro-4-((4-chlorophenyl)(cyano)methyl)-2-methylphenyl)benzamide] | 63 | – | CC50 at 48 h ([1]; HEK 293 kidney cells, Table 2): 50 µM
COc1ccc(Cl)cc1C(=O)Nc1ccc(Sc2nc3ccccc3s2)c(Cl)c1 [Compound 94, N-(4-(benzo[d]thiazol-2-ylthio)-3-chlorophenyl)-5-chloro-2-methoxybenzamide] | 61 | > 100 | –
Cc1cc(C(C#N)c2ccc(Cl)cc2)c(Cl)cc1NC(=O)c1ccccc1Cl (stereo not shown) [Compound 76, 2-chloro-N-(5-chloro-4-((4-chlorophenyl)(cyano)methyl)-2-methylphenyl)benzamide] | 54 | – | CC50 at 48 h ([1]; Table 2): > 100 µM
CC(=O)Nc1ccc(NC(=O)c2cc(Cl)ccc2O)cc1 [Compound 105, N-(4-acetamidophenyl)-5-chloro-2-hydroxybenzamide] | > 100 | 69 | –
Cc1cc(C(C#N)c2ccc(Cl)cc2)c(Cl)cc1NC(=O)c1cc(Br)ccc1O (stereo not shown) [Compound 50, 5-bromo-N-(5-chloro-4-((4-chlorophenyl)(cyano)methyl)-2-methylphenyl)-2-hydroxybenzamide] | 23 | – | CC50 at 48 h ([1]; Table 2): 3.4 µM
COc1ccc(Cl)cc1C(=O)Nc1ccc(NC(C)=O)cc1 [Compound 104, N-(4-acetamidophenyl)-5-chloro-2-methoxybenzamide] | > 100 | > 100 | –
Cc1cc(C(C#N)c2ccc(Cl)cc2)c(Cl)cc1NC(=O)c1cccc(Cl)c1 (stereo not shown) [Compound 77, 3-chloro-N-(5-chloro-4-((4-chlorophenyl)(cyano)methyl)-2-methylphenyl)benzamide] | 63 | – | CC50 at 48 h ([1]; HEK 293 kidney cells, Table 2): > 100 µM
Cc1cc(C(C#N)c2ccc(Cl)cc2)c(Cl)cc1NC(=O)c1ccccc1 (stereo not shown) [Compound 82, N-(5-chloro-4-((4-chlorophenyl)(cyano)methyl)-2-methylphenyl)benzamide] | 74 | – | CC50 at 48 h ([1]; Table 2): 47 µM
Cc1cc(C(C#N)c2ccc(Cl)cc2)c(Cl)cc1NC(=O)c1cc(Cl)cc(Cl)c1O (stereo not shown) [Compound 52, 3,5-dichloro-N-(5-chloro-4-((4-chlorophenyl)(cyano)methyl)-2-methylphenyl)-2-hydroxybenzamide] | 3.7 | – | CC50 at 48 h ([1]; HEK 293 kidney cells, Table 2): 44 µM
COc1ccc(C(=O)Nc2cc(Cl)c(C(C#N)c3ccc(Cl)cc3)cc2C)cc1 (stereo not shown) [Compound 63, N-(5-chloro-4-((4-chlorophenyl)(cyano)methyl)-2-methylphenyl)-4-methoxybenzamide] | 65 | – | CC50 at 48 h ([1]; HEK 293 kidney cells, Table 2): > 100 µM
Cc1ccc(O)c(C(=O)Nc2cc(Cl)c(C(C#N)c3ccc(Cl)cc3)cc2C)c1 (stereo not shown) [Compound 60, N-(5-chloro-4-((4-chlorophenyl)(cyano)methyl)-2-methylphenyl)-2-hydroxy-5-methylbenzamide] | 41 | – | CC50 at 48 h ([1]; Table 2): 40 µM
COc1ccc(Cl)cc1C(=O)Nc1ccc(Oc2ccccc2)c(Cl)c1 [Compound 90, 5-chloro-N-(3-chloro-4-phenoxyphenyl)-2-methoxybenzamide] | > 100 | > 100 | –
COc1ccc(Cl)cc1C(=O)Nc1ccc(Oc2ccccc2)cc1 [Compound 92, 5-chloro-2-methoxy-N-(4-phenoxyphenyl)benzamide] | > 100 | > 100 | –
O=C(Nc1ccccc1)c1cc(Cl)ccc1O [Compound 117, 5-chloro-2-hydroxy-N-phenylbenzamide] | > 100 | 13 | –
COC(=O)c1ccc(NC(=O)c2cc(Cl)ccc2OC)cc1 [Compound 106, methyl 4-(5-chloro-2-methoxybenzamido)benzoate] | 46 | 24 | –
Cc1cc(C(C#N)c2ccc(Cl)cc2)c(Cl)cc1NC(=O)c1cccc([N+](=O)[O-])c1 (stereo not shown) [Compound 68, N-(5-chloro-4-((4-chlorophenyl)(cyano)methyl)-2-methylphenyl)-3-nitrobenzamide] | 43 | – | CC50 at 48 h ([1]; HEK 293 kidney cells, Table 2): > 100 µM
COc1ccc(Cl)cc1C(=O)Nc1ccc(C(C#N)c2ccccc2)cc1 (stereo not shown) [Compound 84, 5-chloro-N-(4-(cyano(phenyl)methyl)phenyl)-2-methoxybenzamide] | 94 | > 100 | –
